One series concerns the target T1, NHE-1 subtype (Homo sapiens, UniProt P19634).
T1 construct: expressed in transfected cells; host or cells: LAP-1 (parental line without endogenous NHE activity), G418 selection
Nature of the series: NHE inhibition FLIPR test (intracellular pH recovery, BCECF) in transfected LAP-1 cells. It counts as cell-based. The following applies: transfected LAP-1 cell line expressing NHE-1 subtype, pHi recovery after acidification, read-out: IC50 (NHE1). Here is the method: The NHE inhibitory activities (IC50 values) of the compounds according to the invention were determined by a FLIPR test. The test is performed in the FLIPR (Fluorescent Imaging Plate Reader) equipped with clear-bottomed and black-walled 96-well microtitration plates. […] The growth medium for the transfected cells (Iscove+10% foetal calf serum) also comprises G418 as selection antibiotic to ensure the presence of transfected sequences. The actual test begins by eliminating the growth medium and adding 100 μl of loading buffer per well (5 μM of BCECF-AM [2′,7′-bis(2-carboxyethyl)-5-(6)-carboxyfluoresceine acetoxymethyl ester] in 20 mM of NH4Cl, 115 mM of choline chloride, 1 mM of CaCl2, 5 mM of KCl, 20 mM of HEPES and 5 mM of glucose; pH 7.4 (adjusted with KOH). The cells are then incubated for 20 minutes at 37° C. This incubation results in the loading of the fluorescent dye into the cells, the fluorescence intensity of which depends on the pHi, and on the NH4Cl, which results in a slight basification of the cells. The precursor BCECF-AM, a non-fluorescent dye, is, as an ester, capable of crossing the membrane. The actual dye, which is incapable of crossing the membrane, is released inside the cell by esterases. After this 20-minute incubation, the loading buffer, which comprises NH4Cl and free BCECF-AM, is removed by washing three times in the cell washing device (Tecan Columbus), each wash being performed with 400 μl of washing buffer (133.8 mM of choline chloride, 4.7 mM of KCl, 1.25 mM of MgCl2, 1.25 mM of CaCl2, 0.97 mM of K2HPO4, 0.23 mM of KH2PO4, 5 mM of HEPES and 5 mM of glucose; pH 7.4 (adjusted with KOH)). The residual volume remaining in the wells is 90 μl (possibly between 50 and 125 μl). This washing step removes the free BCECF-AM and results in an intracellular acidification (pHi of 6.3-6.4) due to the removal of the external ammonium ions. As the equilibrium of the intracellular ammonium with the aqueous ammonia and the protons, by removal of the extracellular ammonium and by the subsequent immediate crossing of the aqueous ammonia across the cell membrane, is disrupted, the washing process results in intracellular protons remaining, which is the cause of the intracellular acidification. This acidification can result finally in the death of the cells if it lasts long enough. It is important here for the washing buffer to be free of sodium (<1 mM), otherwise the extracellular sodium ions would result in an immediate increase in the pHi on account of the activity of the cloned NHE isoforms. It is also important for all the buffers used (loading buffer, washing buffer and regeneration buffer) not to contain any HCO3-ions, otherwise the presence of bicarbonate would result in the activation of bicarbonate-dependent systems that disrupt the pHi regulation, which systems are contained in the LAP-1 parental cell line. The microtiter plates containing acidified cells are then transferred (up to 20 minutes after the acidification) to the FLIPR. In the FLIPR, the intracellular fluorescent dye is activated with light of a wavelength of 488 nm, which is generated by an argon laser, and the measuring parameters (laser power, illumination time and diaphragm of the […] camera integrated into the FLIPR) are chosen such that the average value of the fluorescent signal per well is between 30,000 and 35,000 relative fluorescence units. The actual measurement in the FLIPR starts with a photograph being taken by the CCD camera every two seconds under software control. After 10 seconds, the increase in the intracellular pH is initiated by adding 90 μl of regeneration buffer (133.8 mM of NaCl, 4.7 mM of KCl, 1.25 mM of MgCl2, 1.25 mM of CaCl2, 0.97 mM of K2HPO4, 0.23 mM of KH2PO4, 10 mM of HEPES and 5 mM of glucose; pH 7.4 (adjusted with NaOH)) using a 96-well pipette device incorporated into the FLIPR. Some wells, to which is added pure regeneration buffer, serve as positive controls (100% NHE activity). […]

Where a name gives a salt, the structure may show the parent alone.

T1 sequence (P19634 whole entry): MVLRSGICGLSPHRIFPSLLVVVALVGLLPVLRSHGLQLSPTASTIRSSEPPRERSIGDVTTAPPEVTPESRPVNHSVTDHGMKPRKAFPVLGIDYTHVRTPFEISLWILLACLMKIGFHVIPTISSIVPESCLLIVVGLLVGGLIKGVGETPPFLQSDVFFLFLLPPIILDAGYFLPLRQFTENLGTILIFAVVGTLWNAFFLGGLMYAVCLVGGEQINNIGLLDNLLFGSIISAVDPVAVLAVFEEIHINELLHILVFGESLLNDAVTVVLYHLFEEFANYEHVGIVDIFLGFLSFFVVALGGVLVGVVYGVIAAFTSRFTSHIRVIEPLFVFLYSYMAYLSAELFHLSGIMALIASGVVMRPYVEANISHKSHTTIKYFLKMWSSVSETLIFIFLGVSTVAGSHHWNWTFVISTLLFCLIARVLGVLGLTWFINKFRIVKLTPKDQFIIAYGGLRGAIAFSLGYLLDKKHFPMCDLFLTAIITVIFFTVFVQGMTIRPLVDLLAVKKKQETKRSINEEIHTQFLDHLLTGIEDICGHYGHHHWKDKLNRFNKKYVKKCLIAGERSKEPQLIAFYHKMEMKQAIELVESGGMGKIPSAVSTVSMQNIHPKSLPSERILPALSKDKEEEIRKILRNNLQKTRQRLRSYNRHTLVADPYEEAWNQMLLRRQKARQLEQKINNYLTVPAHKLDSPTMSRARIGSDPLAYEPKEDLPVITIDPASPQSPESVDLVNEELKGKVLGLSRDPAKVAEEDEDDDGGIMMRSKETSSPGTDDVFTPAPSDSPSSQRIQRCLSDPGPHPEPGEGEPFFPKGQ

What is called IC50 is the concentration at which inhibition is half-maximal. In the case of `COc1ccc2c(c1)c(C(=O)N=C(N)N)c(C)n2-c1ncnc2ccc(Cl)cc12` [Example 14, N-[1-(6-Chloro-quinazolin-4-yl)-5-methoxy-2-methyl-1H-indole-3-carbonyl]-guanidine trifluoroacetate], the IC50 at NHE-1 subtype came to 2560 nM.
One may read the melting point as the temperature, or range, at which the solid turns liquid. In turn, `Cl.N=C(N)NC(=O)c1cn(-c2ccnc3ccc(C(F)(F)F)cc23)c2ccccc12` [Example 2, 3-Guanidinocarbonyl-1-(6-(trifluoromethyl)quinol-4-yl)-1H-indole hydrochloride] yielded a melting point of 260 °C. For the same molecule, at NHE-1 subtype, the IC50 worked out at 220 nM.
For the molecule `NC(N)=NC(=O)c1cn(-c2ccnc3ccc(F)cc23)c2ccccc12` [Example 11, N-[1-(6-Fluoro-quinolin-4-yl)-1H-indole-3-carbonyl]-guanidine trifluoroacetate], on NHE-1 subtype, the IC50 is 10 nM.
Turning to `Cl.Cn1ccc2c(-n3cc(C(=O)NC(=N)N)c4ccccc43)ncnc21` [Example 7, 3-Guanidinocarbonyl-1-(7-methyl-7H-pyrrolo[2,3-d]pyrimidin-4-yl)-1H-indole hydrochloride], the melting point worked out at 244 °C. On NHE-1 subtype, the IC50 was 1.2 nM.
The like results for `COc1ccc2nccc(-n3cc(C(=O)NC(=N)N)c4ccccc43)c2c1.Cl` [Example 5, 3-Guanidinocarbonyl-1-(6-methoxyquinol-4-yl)-1H-indole hydrochloride] were, in that order, 266 °C and 120 nM.
Take `COc1ccc2c(c1)c(C(=O)N=C(N)N)c(C)n2-c1ccnc2cc(Cl)ccc12` [Example 10, N-[1-(7-Chloro-quinolin-4-yl)-5-methoxy-2-methyl-1H-indole-3-carbonyl]-guanidine trifluoroacetate]: the IC50 at NHE-1 subtype is 3230 nM.
In turn, `Cl.N=C(N)NC(=O)c1cn(-c2cc(C(F)(F)F)nc3ccccc23)c2ccccc12` [Example 1, 3-Guanidinocarbonyl-1-(2-(trifluoromethyl)quinol-4-yl)-1H-indole hydrochloride] registered a melting point of 216 °C. Besides, the IC50 on NHE-1 subtype was determined as 2360 nM.
The like results for `Cl.N=C(N)NC(=O)c1cn(-c2ccnc3c(C(F)(F)F)cccc23)c2ccccc12` [Example 4, 3-Guanidinocarbonyl-1-(8-(trifluoromethyl)quinol-4-yl)-1H-indole hydrochloride] were, in that order, 212 °C and 1470 nM.
Consider `COc1ccc2c(c1)c(C(=O)N=C(N)N)c(C)n2-c1ccnc2ccc(F)cc12` [Example 12, N-[1-(6-Fluoro-quinolin-4-yl)-5-methoxy-2-methyl-1H-indole-3-carbonyl]-guanidine trifluoroacetate], for which the IC50 on NHE-1 subtype amounted to 2640 nM.
Consider `NC(N)=NC(=O)c1cn(-c2ccnc3c(F)cccc23)c2ccccc12` [Example 13, N-[1-(8-Fluoro-quinolin-4-yl)-1H-indole-3-carbonyl]-guanidine trifluoroacetate], for which, at NHE-1 subtype, the IC50 stood at 2.5 nM.
With `COc1ccc2c(-n3cc(C(=O)NC(=N)N)c4ccccc43)ccnc2c1.Cl` [Example 6, 3-Guanidinocarbonyl-1-(7-methoxyquinol-4-yl)-1H-indole hydrochloride], the melting point was 266 °C. In addition, at NHE-1 subtype, the IC50 turned out to be 240 nM.
`Cl.N=C(N)NC(=O)c1cn(-c2ccnc3cc(C(F)(F)F)ccc23)c2ccccc12` [Example 3, 3-Guanidinocarbonyl-1-(7-(trifluoromethyl)quinol-4-yl)-1H-indole hydrochloride] came in with a melting point of 238 °C. In addition, on NHE-1 subtype, the IC50 is 250 nM.
For `Cc1cc(-n2cc(C(=O)N=C(N)N)c3ccccc32)c2ccccc2n1` [Example 8, N-[1-(2-Methyl-quinolin-4-yl)-1H-indole-3-carbonyl]-guanidine trifluoroacetate], the IC50 on NHE-1 subtype is 7.2 nM.
On the same count and under the same terms, in the case of `NC(N)=NC(=O)c1cn(-c2ccnc3cc(Cl)ccc23)c2ccccc12` [Example 9, N-[1-(7-Chloro-quinolin-4-yl)-1H-indole-3-carbonyl]-guanidine trifluoroacetate] it was 250 nM.

The record behind these values is US7638521B2, “3-guanidinocarbonyl-1-heteroaryl-indole derivatives, preparation process, their use as medicaments, and pharmaceutical compositions comprising them” (sanofi-aventis Deutschland GmbH, priority 2002, dated 2009).
